Source: patent publication US20220304950A1, “[…] THE TREATMENT OF PATIENTS WITH MAJOR DEPRESSIVE DISORDER, INCLUDING SUICIDALITY” (JANSSEN PHARMACEUTICALS, INC., priority 2019, published 2022)

Legend:
[1] = test system: adult patients with MDD assessed to be at imminent risk for suicide; experiment: MADRS total score, Study 1 (Example 4); assay type: in vivo, human; details: for MADRS total score change, Diff. of LS Means (SE) vs placebo + SOC: ANCOVA LOCF; for MADRS total score change, LS mean difference Testing-Reference (MMRM): Esk 84 mg + SOC minus placebo + SOC; for MADRS total score, change from baseline to Day 2 (LOCF), mean (SD): negative = improvement
Text: (§1) The primary efficacy evaluation will be the MADRS total score. The MADRS will be performed using the Structured Interview Guide for the Montgomery Asberg Depression Rating Scale. The MADRS is a clinician-rated scale designed to be used in subjects with MDD to measure depression severity and detect changes due to antidepressant treatment. The test consists of 10 items, each of which is scored from 0 (item not present or normal) to 6 (severe or continuous presence of the symptoms), for a total possible score of 60. Higher scores represent a more severe condition. The MADRS evaluates apparent sadness, reported sadness, inner tension, sleep, appetite, concentration, lassitude, interest level, pessimistic thoughts, and suicidal thoughts.
(§2) The typical recall period for the MADRS is 7 days. In this study, the MADRS will also be administered using a since last assessment recall, a 4-hour recall on Day 1 and Day 25 postdose, and a 24-hour recall on Day 2. For the MADRS performed at 4 hours postdose on Days 1 and 25, the MADRS scores for the sleep item recorded predose on the same day will be carried forward.
The primary efficacy analyses are based on the full efficacy analysis set which is defined as all randomized subjects who received at least 1 dose of double-blind study medication and have both a baseline and a post-baseline evaluation for the Montgomery Xsberg Depression Rating Scale (MADRS) total score or Clinical Global Impression-Severity of Suicidality-Revised (CGI-SS-R).
(§3) MADRS consists of 10 items that cover all of the core depressive symptoms: each item is scored from 0 (symptom is not present or is normal) to 6 (severe or continuous presence of the symptom). A total score (0 to 60) is calculated by summing the scores of all 10 items. A higher score represents a more severe condition.

[2] = test system: adult patients with MDD assessed to be at imminent risk for suicide; experiment: MADRS total score, Study 2 (Example 5); assay type: in vivo, human; details: 24 hours post first dose
Text: as §1, §2
The primary objective is to compare the efficacy of ESK+SOC to that of PBO+SOC in reducing the symptoms of MDD, including suicidal ideation, as measured by the change from baseline on the MADRS total score at 24 hours post-first dose. […]
as §3, with “Primary efficacy variable/Primary timepoint: Change in MADRS total score from baseline to 24 hours post first dose (Day 2). The MADRS” for “MADRS”, “A higher score represents a more severe condition.” left out

[3] = Esk 84 mg + SOC, 24 hours post first dose
[4] = Esk 84 mg + SOC, 24 hours post first dose, full efficacy analysis set

## CN[C@]1(c2ccccc2Cl)CCCCC1=O [esketamine, (S)-2-(2-chlorophenyl)-2-(methylamino)cyclohexanone]
[1]; 24 hours post first dose
  Effect size for the primary endpoint (MADRS): 0.34
  MADRS total score change, Diff. of LS Means (SE) vs placebo + SOC: −3.8 (1.39)
[1]; 24 hours post first dose, listed as Esk
  MADRS total score change, Diff. of LS Means (SE) vs placebo + SOC: −3.8
[1]; ESK+SOC
  MADRS total score, mean change from baseline (SD): −16.4 (11.95)
[1]; Day 1 (DB): 4 H
  MADRS total score change, LS mean difference Testing-Reference (MMRM): −2.6
[1]; Day 2 (DB)
  MADRS total score change, LS mean difference Testing-Reference (MMRM): −3.7
[1]; Day 4 (DB)
  MADRS total score change, LS mean difference Testing-Reference (MMRM): −4.6
[1]; Day 8 (DB)
  MADRS total score change, LS mean difference Testing-Reference (MMRM): −2.5
[1]; Day 11 (DB)
  MADRS total score change, LS mean difference Testing-Reference (MMRM): −2.8
[1]; Day 15 (DB)
  MADRS total score change, LS mean difference Testing-Reference (MMRM): −1.5
[1]; Day 18 (DB)
  MADRS total score change, LS mean difference Testing-Reference (MMRM): −2.3
[1]; Day 22 (DB)
  MADRS total score change, LS mean difference Testing-Reference (MMRM): −3.2
[1]; Day 25 (DB): 4 H
  MADRS total score change, LS mean difference Testing-Reference (MMRM): −4.1
[1]; Day 25 (DB): predose
  MADRS total score change, LS mean difference Testing-Reference (MMRM): −2.6
[1]; [3]
  MADRS total score, change from baseline to Day 2 (LOCF), median: −15.0
  MADRS total score, change from baseline to Day 2 (LOCF), mean (SD): −16.4 (11.95)
[1]; [4]
  MADRS total score, Day 2 (DB) LOCF, mean: 24.7
  MADRS total score, Day 2 (DB) LOCF, median: 26.0
[1]; Esk 84 mg + SOC, 24 hours post first dose, listed as Esk
  MADRS total score, change from baseline to Day 2 (LOCF), mean (SD): −16.4
[1]; Esk 84 mg + SOC, Day 1 (DB): 4 H
  MADRS total score change from baseline, LS mean (MMRM observed case): −12.8
[1]; Esk 84 mg + SOC, Day 2 (DB)
  MADRS total score change from baseline, LS mean (MMRM observed case): −15.7
[1]; Esk 84 mg + SOC, Day 4 (DB)
  MADRS total score change from baseline, LS mean (MMRM observed case): −18.3
[1]; Esk 84 mg + SOC, Day 8 (DB)
  MADRS total score change from baseline, LS mean (MMRM observed case): −19.0
[1]; Esk 84 mg + SOC, Day 11 (DB)
  MADRS total score change from baseline, LS mean (MMRM observed case): −20.8
[1]; Esk 84 mg + SOC, Day 15 (DB)
  MADRS total score change from baseline, LS mean (MMRM observed case): −21.6
[1]; Esk 84 mg + SOC, Day 18 (DB)
  MADRS total score change from baseline, LS mean (MMRM observed case): −23.1
[1]; Esk 84 mg + SOC, Day 22 (DB)
  MADRS total score change from baseline, LS mean (MMRM observed case): −23.5
[1]; Esk 84 mg + SOC, Day 25 (DB): 4 H
  MADRS total score change from baseline, LS mean (MMRM observed case): −28.8
[1]; Esk 84 mg + SOC, Day 25 (DB): predose
  MADRS total score change from baseline, LS mean (MMRM observed case): −24.3
[2]
  Effect size for the primary endpoint (MADRS): 0.35
[2]; ANCOVA LOCF
  MADRS total score change, least-square mean difference (SE) vs placebo+SOC: −3.9 (1.39)
[2]; esketamine 84 mg+SOC
  MADRS total score, change from baseline to Day 2 (LOCF), mean (SD): −15.7 (11.56)
